Key:
[1] = Acute oral toxicity, single oral dose, mortality rate after 7 days; settings: mouse, in vivo, male mice, observed for 7 days
Procedure: A single dose of each of the compounds of the present invention was orally administered to male mice. After observing for 7 days, a mortality rate was determined.

5-lipoxygenase (5-LO) = molecular target: T1, 5-lipoxygenase (5-LO) (Homo sapiens, UniProt P09917); test: 5-lipoxygenase (5-LO) inhibitory activity, leukotriene B4 production in human peripheral blood mononuclear cells; format: cell-based; settings: for 5-LO, percentage given after >10: bracketed value beside IC50 >10 μM, not explained, presumably inhibition at 10 μM; for IC50: human peripheral blood mononuclear cells, A23187, leukotriene B4 production
T1 construct: human peripheral blood mononuclear cells and each of test compounds dissolved in DMSO (final concentration: 1%) were preincubated; endogenous in cells; host or cells: human peripheral blood mononuclear cells
T1 sequence (P09917 1-674): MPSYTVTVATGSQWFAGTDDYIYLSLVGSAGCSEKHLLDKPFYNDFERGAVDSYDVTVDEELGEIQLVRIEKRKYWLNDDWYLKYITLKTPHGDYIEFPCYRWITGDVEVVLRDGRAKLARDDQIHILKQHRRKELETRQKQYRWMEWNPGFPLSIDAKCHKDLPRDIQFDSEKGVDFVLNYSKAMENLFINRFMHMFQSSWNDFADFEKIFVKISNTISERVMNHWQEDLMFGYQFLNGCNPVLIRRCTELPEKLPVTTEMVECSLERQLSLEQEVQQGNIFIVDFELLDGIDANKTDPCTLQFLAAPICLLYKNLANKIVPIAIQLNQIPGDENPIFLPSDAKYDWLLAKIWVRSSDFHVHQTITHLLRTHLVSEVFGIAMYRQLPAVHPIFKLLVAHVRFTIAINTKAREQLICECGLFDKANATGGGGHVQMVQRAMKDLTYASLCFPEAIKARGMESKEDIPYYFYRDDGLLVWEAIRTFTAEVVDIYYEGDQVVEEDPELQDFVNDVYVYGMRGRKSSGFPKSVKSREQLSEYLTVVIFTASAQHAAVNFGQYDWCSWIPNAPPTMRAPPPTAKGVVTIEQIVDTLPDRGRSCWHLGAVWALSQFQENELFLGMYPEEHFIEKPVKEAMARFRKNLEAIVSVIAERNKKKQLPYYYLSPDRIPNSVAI
Procedure: A 5-LO inhibitory activity was measured by a partially modified process of a process of Carter et al. (Carter G. W, et al, J. Pharmacol. Exp. Ther.: 256, 929-37, 1991). That is, human peripheral blood mononuclear cells and each of test compounds dissolved in DMSO (final concentration: 1%) were preincubated (37° C., 15 minutes) in a Hanks' balanced salt solution and 30 μM A23187 was further added, followed by incubation (37° C., 30 minutes). The amount of leukotriene B4 produced as a result of incubation was determined by enzyme immunoassay and a 50% production inhibitory concentration (μM) against 5-LO of each test compound was calculated.

[2] = molecular target: T2, 15-LO obtained from reticulocyte of rabbit (Oryctolagus cuniculus, UniProt P12530); test: 15-lipoxygenase (15-LO) inhibitory activity, 15-HETE production; format: biochemical; settings: 15-LO from reticulocyte of rabbit, linoleic acid
T2 construct: 15-LO obtained from reticulocyte of rabbit; from tissue; host or cells: rabbit reticulocytes
T2 sequence (P12530 1-663): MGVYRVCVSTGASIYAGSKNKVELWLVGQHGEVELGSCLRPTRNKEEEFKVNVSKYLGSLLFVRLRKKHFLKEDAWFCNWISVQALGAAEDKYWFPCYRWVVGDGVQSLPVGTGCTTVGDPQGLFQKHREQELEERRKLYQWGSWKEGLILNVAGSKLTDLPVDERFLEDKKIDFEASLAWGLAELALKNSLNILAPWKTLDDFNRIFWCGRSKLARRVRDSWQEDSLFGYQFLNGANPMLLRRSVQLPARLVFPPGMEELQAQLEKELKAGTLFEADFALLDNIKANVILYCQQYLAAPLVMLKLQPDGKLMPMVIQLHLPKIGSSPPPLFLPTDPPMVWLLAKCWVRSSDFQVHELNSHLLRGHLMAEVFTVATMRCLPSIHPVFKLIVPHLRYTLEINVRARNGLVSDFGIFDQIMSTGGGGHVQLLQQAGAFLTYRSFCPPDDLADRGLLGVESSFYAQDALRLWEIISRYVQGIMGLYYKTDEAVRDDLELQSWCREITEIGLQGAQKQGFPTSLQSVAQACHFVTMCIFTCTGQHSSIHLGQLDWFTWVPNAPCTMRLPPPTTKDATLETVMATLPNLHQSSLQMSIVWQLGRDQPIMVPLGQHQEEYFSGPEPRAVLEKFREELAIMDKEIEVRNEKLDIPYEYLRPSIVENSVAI
Procedure: A 15-LO inhibitory activity was measured by a partially modified process of a process of Auerbach et al. (Auerbach B. J, et al., Anal. Biochem.: 201, 375-80, 1992). That is, 15-LO obtained from reticulocyte of rabbit and each of test compounds dissolved in DMSO (final concentration: 1%) were preincubated (4° C., 15 minutes) in phosphoric acid buffer (pH 7.4) and 256 μM linoleic acid was further added, followed by incubation (4° C., 10 minutes). The amount of 15-HETE produced as a result of incubation was determined by spectrophotometry (OD660nm) and 50% production inhibitory concentration (μM) against 15-LO of each test compound was calculated. Compounds (R-3) and (R-4) (edaravone) of the following formulas were used as a control drug.

[3] = test system: lipid peroxidation activity in a rat brain homogenate; test: In vitro lipid peroxidation inhibition (rat brain homogenate, thiobarbituric acid process); format: biochemical; settings: read-out: In vitro lipid peroxidation inhibition 50% inhibitory concentration (IC50 μM), 500 μM cysteine, 5 μM sulfuric acid monobasic iron, 100 mM KCl, 37° C. for 30 minutes
Procedure: (§1) An in vitro lipid peroxidation inhibition of the compounds of the present invention was evaluated by measuring a lipid peroxidation activity in a rat brain homogenate according to a process of Malvy, c., et al., Biochemical and Biophysical Research Communications, 1980, Vol. 95, p. 734-737. That is, a rat brain was extracted and a 5-fold amount of an aqueous phosphoric acid buffered saline solution (pH 7.4) (hereinafter abbreviated to PBS) was added to the brain under ice cooling, followed by homogenization using a Teflon homogenizer and further centrifugation at 10,000 g for 20 minutes to prepare a brain homogenate as a supernatant. To the brain homogenate thus prepared, 500 μM cysteine, 5 μM sulfuric acid monobasic iron and 100 mM KCl were added, followed by incubation at 37° C. for 30 minutes. Malondialdehyde produced by the […] of lipid peroxidation was measured by a thiobarbituric acid process.

[4] = test system: lipid peroxidation activity of each tissue homogenate (brain, heart and kidney); test: Tissue migration properties: ex vivo lipid peroxidation inhibition in brain, heart and kidney homogenates; settings: SD male rats, 100 mg/kg intraperitoneally, 30 minutes after administration; for Ex vivo lipid peroxidation inhibition inhibition ratio (%) Brain: brain homogenate; for Ex vivo lipid peroxidation inhibition inhibition ratio (%) Heart: heart homogenate; for Ex vivo lipid peroxidation inhibition inhibition ratio (%) Kidney: kidney homogenate
Procedure: as §1
Tissue migration properties of the compounds of the present invention were evaluated by measuring an ex vivo lipid peroxidation inhibition. A solution or suspension prepared by dissolving or suspending each of test compounds in an aqueous physiological saline solution or a 1% poly oxy ethylene hydrogenated castor oil (NIKKOL HCO-60, manufactured by Nikko Chemicals Co., Ltd.) physiological saline solution was intraperitoneally administered to SD male rats (one group: 3 rats, 6 weeks old) (available from Nippon SLC Co., Ltd.) at a dose of 100 mg/kg. 30 Minutes after administration, rats were bled to death by cutting the carotid artery and then the brain, heart and kidney were extracted. A lipid peroxidation activity of each tissue homogenate was measured by the process described in Example 18. An inhibition ratio in each tissue of the compounds of the present invention was determined from the amount of lipid peroxidation produced of a control group (physiological saline administration group) and a test compound administration group.

[5] = test system: abnormal behavior and fatality due to ferrous chloride; test: In vivo antioxidative activity: ferrous chloride administration into spinal subarachnoid cavity of mice; design: species or system Slc:ICR male mice; settings: score after 60 minutes; for In vivo antioxidation action 50% inhibitory concentration (ID50), Intraperitoneal administration: intraperitoneal administration 30 minutes before ferrous chloride into spinal canal; for In vivo antioxidation action 50% inhibitory concentration (ID50), Oral administration: oral administration 30 minutes before ferrous chloride into spinal canal
Procedure: An in vivo antioxidative activity of the compounds of the present invention was evaluated from an abnormal behavior due to administration of ferrous chloride into spinal subarachnoid cavity of mice as well as an inhibitory effect of a fatality rate according to the process described in J. Med. Chem., 1997, Vol. 40, p. 559-573. Using Slc:ICR male mice (one group: 3 to 7 mice, 5 weeks old) (available from Nippon SLC Co., Ltd.), 5 μl of a 50 mM ferrous chloride physiological saline solution was administered to the spinal canal through the space between the fifth lumbar vertebrae and the sixth lumbar vertebrae. 20 to 60 minutes after administration of ferrous chloride, symptoms were observed and a score after 60 minutes was determined from symptoms shown in Table 32. […] As is apparent from the results, the compounds of the present invention have an in vivo antioxidation action.

[6] = test system: lipid peroxidation in retina homogenate; test: Retina migration properties: ex vivo retinal lipid peroxidation production inhibition; format: in vivo; settings: SD male rats, retina taken after 30 minutes
Procedure: Retina migration properties of the compounds of the present invention were evaluated. To SD male rats (one group: 3 rats, 6 weeks old), a solution or suspension prepared by dissolving or suspending each of the test compounds in a 0.1N hydrochloric acid solution or a 1% poly oxy ethylene hydrogenated castor oil (NIKKOL HCO-60) solution was orally administered. After 30 minutes, both eyes were extracted and the retina was separated under ice cooling. A 5% homogenate solution of the retina was prepared in a 0.1M tris-hydrochloric acid buffer (pH 7.4) under ice cooling using a polytron homogenizer for a trace amount (NS-310E: manufactured by Nichion Irika Kiki Co., Ltd.) and, after autoxidation at 37° C. for one hour, the amount of lipid peroxidation produced was determined by a thiobarbituric acid process (MASUGI et al., vitamin 51, 21-29, 1977). A 30% inhibitory dose (ID30) was determined from the inhibition ratio at each dose. As is apparent from the results, the compounds of the present invention have an ex vivo retinal lipid peroxidation production inhibitory action and is also excellent in retina migration properties.

| Compound | LD50 at 7 days [1] | 5-LO, percentage given after >10 (5-lipoxygenase (5-LO)) | IC50 (5-lipoxygenase (5-LO)) | IC50 [2] | IC50 [3] | Ex vivo lipid peroxidation inhibition inhibition ratio (%) Brain [4] | Ex vivo lipid peroxidation inhibition inhibition ratio (%) Heart [4] | Ex vivo lipid peroxidation inhibition inhibition ratio (%) Kidney [4] | In vivo antioxidation action 50% inhibitory concentration (ID50), Intraperitoneal administration [5] | In vivo antioxidation action 50% inhibitory concentration (ID50), Oral administration [5] | melting point | Lipid peroxidation inhibition 30% inhibitory concentration (ID30, oral administration) in ex vivo retina [6] |
| --- | --- | --- | --- | --- | --- | --- | --- | --- | --- | --- | --- | --- |
| Cc1c(C)c2c(c(C)c1N)CC(C)(CN1CCC(c3ccccc3)CC1)O2 (stereo not drawn) [Compound R-3, reference compound] | < 300 mg/kg | 34% | > 10000 nM | 3.26 µM | – | – | – | – | – | – | – | – |
| CC1=NN(c2ccccc2)C(=O)C1 [Compound R-4, edaravone] | – | 32% | > 10000 nM | 5.57 µM | – | – | – | – | – | – | – | – |
| Cc1c(C)c2c(c(C)c1N)CC(C)(CNc1ccc(-c3ccn[nH]3)cc1)O2 (racemic) [Compound B-2-5-1, 4-(±)-(5-amino-2,4,6,7-tetramethyldihydrobenzofuran-2-ylmethylamino)-phenyl-5-1H-pyrazole] | > 2000 mg/kg | – | 160 nM | 1.4 µM | 0.42 µM | 96% | 88% | 88% | 16 mg/kg | 17 mg/kg | – | – |
| Cc1c(C)c2c(c(C)c1N)CC(C)(C(=O)N1CCN(c3ccc(-n4ccnc4)cc3)CC1)O2 (racemic) [Compound B-1-1, (±)-(5-amino-2,4,6,7-tetramethyldihydrobenzofuran-2-yl)-[4-(4-imidazol-1-ylphenyl)-piperazin-1-yl]carboxamide] | – | – | – | – | – | 96% | 88% | 95% | 4.4 mg/kg | 19 mg/kg | – | – |
| Cc1c(C)c2c(c(C)c1O)CC(C)(C(=O)Nc1ccc(-n3ccnc3)cc1)O2 (stereo not drawn) [Compound R-1, reference compound] | – | – | – | – | 0.23 µM | 68% | 59% | 75% | >30 mg/kg | >30 mg/kg | – | – |
| Cc1c(C)c2c(c(C)c1O)CCC(C)(C(=O)Nc1ccc(-n3ccnc3)cc1)O2 (stereo not drawn) [Compound R-2, reference compound] | – | – | – | – | 0.23 µM | 45% | 57% | 84% | 20 mg/kg | 53 mg/kg | – | – |
| Cc1c(C)c2c(c(C)c1N)CC(C)(CN1CCN(c3ccc(-c4ccn[nH]4)cc3)CC1)O2 (stereo not drawn) [Compound B-1-34] | – | – | 162 nM | 5.56 µM | – | – | – | – | – | – | 205 to 207 °C | – |
| Cc1c(C)c2c(c(C)c1N)CC(C)(CN1CCN(c3ccc(-n4ccnc4)cc3)CC1)O2 (racemic) [Compound B-1-2, 4-(±)-(5-amino-2,4,6,7-tetramethyldihydrobenzofuran-2-ylmethyl)-1-(4-imidazol-1-ylphenyl)piperazine] | – | – | – | – | – | 79% | 93% | 89% | 27 mg/kg | 13 mg/kg | – | 5.7 mg/kg |

— patent publication US7553837B2, “Phenylazole compounds production process and antioxidants” (Nippon Soda Co., Ltd., priority 2003, dated 2009)
